Results: patent US4117136A, “Systemic antimicrobial quinolines for plant disease” (Sumitomo Chemical Company, Ltd., priority 1976, dated 1978)
Converted amounts (≈) assume the structure as drawn. Structures can show the parent of a compound that is named as a salt. Where two headings read alike, the source gives them in different places.

How the values were obtained:
Pseudomonas lachrymans = assay: Disease prevention effect on angular leaf spot of cucumber; type: in vivo, Pseudomonas lachrymans (on cucumber, Cucumis sativus L.); conditions: spray, 4 hours before inoculation
Method: Four hours after the application of the sample, a suspension of Pseudomonas lachrymans was inoculated by spraying on the plant. […] Incidence of disease was assessed in the following manner. […] |______________________________________ |______________________________________ |0 Healthy […] |3 26-50% diseased spot areas […] | [drawing 22] Five plants were used for each treatment.

Pseudomonas solanacearum = type: in vivo, Pseudomonas solanacearum (on tomato, Sekai Ichi); conditions: soil application, one day after inoculation, assessed after additional 10 days
Xanthomonas oryzae = type: in vivo, Xanthomonas oryzae (on rice plant, Kinki #33); conditions: spray, 500 ppm, 4 hours before inoculation, 7 days, bacterial-exudation method
Erwinia carotovora = assay: Plant systemic activity (root immersion, Chinese cabbage); conditions: roots immersed, 10 ppm, inoculated after 2 days
P. lachrymans = assay: Controlling angular leaf spot of cucumber by seed treatment; conditions: grown 2 weeks
E. carotovora = assay: Antibacterial activity against E. carotovora (agar dilution MIC); conditions: for MIC: Pectobacterium carotovorum, 72 h, read-out: MIC (minimum inhibitory concentration); for antibacterial activity: result in words, in vitro, Erwinia carotovora
[1] = inoculated seeds soaked 30 minutes, 500 ppm

| Compound | Severity of Disease (Pseudomonas lachrymans; 500 ppm) [%] | Ratio of Diseased Seedling (Pseudomonas solanacearum; 500 ppm) [%] | Severity of Disease (Xanthomonas oryzae) [%] | Severity of Disease (Erwinia carotovora) [%] | Infected Plants (P. lachrymans; [1]) [%] | MIC (E. carotovora) [µg/mL] | also measured |
| --- | --- | --- | --- | --- | --- | --- | --- |
| CCn1cc(C(=O)OC)c(=O)c2cc3c(cc21)OCO3 [(2)] | 25 | 36 | 0 | 0 | 0 | > 50 | antibacterial activity (E. carotovora): very weak antibacterial activity |
| COn1cc(C(=O)O)c(=O)c2cc3c(cc21)OCO3 [(3)] | – | – | – | – | – | 0.39 (≈ 1.48 µM) | – |
| O=C(O)c1cn(CC(F)(F)F)c2cc3c(cc2c1=O)OCO3 [(6)] | – | – | – | – | – | 3.12 (≈ 9.9 µM) | – |
| CCOC(=O)c1cn(CCF)c2cc3c(cc2c1=O)OCO3 [(8)] | 21 | 24 | 0 | 0 | 0 | > 50 | antibacterial activity (E. carotovora): very weak antibacterial activity |
| COn1cc(C(=O)O)c(=O)c2c3sc(=O)n(C)c3ccc21 [(10)] | – | – | – | 25 | – | 0.049 (≈ 0.16 µM) | – |
| CCn1c(C)c(C(=O)O)c(=O)c2cc3c(cc21)OCO3 [(11)] | – | – | – | – | – | > 50 | antibacterial activity (E. carotovora): very weak antibacterial activity |
| C=Cn1cc(C(=O)O)c(=O)c2cc3c(cc21)OCO3 [(13)] | 2.4 | 4 | 0 | 0 | 0 | – | MIC (minimum inhibitory concentration) (E. carotovora; agar culture medium, 3 days at 27° C): 0.78 µg/mL (≈ 3.01 µM) |
| CCn1cc(C(=O)O)c(=O)c2cc3c(cc21)OCO3 [Compound (1)] | 7.9 | 10 | 0 | 0 | 0 | 1.56 (≈ 5.97 µM) | – |
| C=Cn1cc(C(=O)O)c(=O)c2cc3c(cc21)OCO3 [Compound (4)] | 4.6 | 6 | 0 | 0 | 0 | 0.78 (≈ 3.01 µM) | – |
| O=C(O)c1cn(CCF)c2cc3c(cc2c1=O)OCO3 [Compound (7)] | 12 | 18 | 0 | 0 | 0 | 0.78 (≈ 2.79 µM) | – |
| O=C(O)c1cn(CCCl)c2cc3c(cc2c1=O)OCO3 [Compound (9)] | 19 | 14 | 0 | 0 | – | 1.56 (≈ 5.28 µM) | – |
| CCn1cc(C(=O)O)c(=O)c2ccc(C)nc21 [Nalidixic acid, nalidixic acid, reference compound] | – | – | – | – | – | 6.25 (≈ 26.9 µM) | – |
| OCl [Sodium Hypochlorite, reference compound] | – | – | – | – | – | – | Infected Plants (P. lachrymans; inoculated seeds soaked 30 minutes, 2,000 ppm): 7.5% |
| [H]/N=C(/N)N[C@H]1[C@H](O)[C@@H](O)[C@H](O[C@@H]2O[C@@H](C)[C@](O)(C=O)[C@H]2O[C@@H]2O[C@@H](CO)[C@H](O)[C@@H](O)[C@@H]2NC)[C@@H](N/C(N)=N\[H])[C@@H]1O [Streptomycin Sulfate, reference compound] | – | – | – | 31 | – | – | Severity of Disease (Pseudomonas lachrymans; 200 ppm): 28%; Ratio of Diseased Seedling (Pseudomonas solanacearum; 200 ppm): 86%; Infected Plants (P. lachrymans; inoculated seeds soaked 30 minutes, 200 ppm): 26.5% |
